Data reported in US4416884A, “Piperazinylbenzoheterocyclic compounds” (Otsuka Pharmaceutical Co., Ltd., priority 1978, dated 1983).
Converted amounts (≈) assume the structure as drawn. Read-outs that look alike come from different tables or passages of the source.

How the values were obtained:
Assay type in all cases: cell-based
[1] = test system: Yersinia enterocolitica 0-3; assay: antimicrobial activity, serial dilution method on agar plate
Summary of the method: (§1)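 Reported figure is the lowest compound level (mcg/ml) inhibiting growth on Heart Infusion agar in a serial plate dilution. Suspensions of 1×10^8 and 1×10^6 cells/ml served as inocula.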

[2] = test system: Salmonella typhi 0-901 (NCTC 8393); assay: as above; conditions: Salmonella enterica, read-out: Minimum Inhibitory Concentration
Summary of the method: as §1

Escherichia Coli NIHJ = assay: as above
Summary of the method: as §1

Enterobacter cloacae = assay: as above
Summary of the method: as §1

[3] = test system: Pseudomonas maltophilia IFO 12692; assay: as above; conditions: Stenotrophomonas maltophilia, IFO12692, read-out: Minimum Inhibitory Concentration
Summary of the method: as §1

Hafnia alvei IFO 3731 = assay: as above
Summary of the method: as §1

[4] = test system: Corinebacterium diphteriae; assay: as above
Summary of the method: as §1

[5] = test system: Escherichia Coli NIHJ JC-2 (IFO 12734); assay: as above; conditions: Escherichia coli, read-out: Minimum Inhibitory Concentration
Summary of the method: as §1

[6] = test system: Pseudomonas putida IFO 13696; assay: as above
Summary of the method: as §1

[7] = test system: Test Organism 16 (Pseudomonas maltophilia IFO 12692); assay: influence of the addition of horse serum on the MIC; conditions: Stenotrophomonas maltophilia
[8] = test system: Aeromonas hydrophila IFO 12658; assay: antimicrobial activity on bacteria which cause infectious diseases in fish
Description: (§2) The antimicrobial activity of the following test compounds on various test organisms listed below was determined by the serial dilution method on agar plate (Heart Infusion agar produced by Difco Co.) (see CHEMOTHERAPY 22, pp. 1126-1128 (1974)), and the minimum inhibitory concentrations (mcg/ml) obtained are shown in Table 1 below.
(§3) A sample of each test organism was prepared so that the population of the organism was 1×10^8 cells/ml (O.D. 660 mμ=0.07 to 0.16) and 1×10^6 cells/ml (which was obtained by diluting the above 1×10^8 cells/ml preparation).
(§4) In the same manner as above, the antimicrobial activity of the following compounds on various test organisms which cause infectious diseases in fish was determined.

[9] = test system: Aeromonas salmonicida IFO 12718; assay: as above
Description: as §2, §3, §4

[10] = test system: Aeromonas hydrophila IFO 12981; assay: as above
Description: as §2, §3, §4

[11] = test system: Vibrio anguillarum IFO 13266; assay: as above
Description: as §2, §3, §4

[12] = test system: Vibrio anguillarum IFO 12710; assay: as above
Description: as §2, §3, §4

[13] = test system: Pseudomonas fluorescens IFO 12180; assay: as above; conditions: IFO12180, read-out: Minimum Inhibitory Concentration
Description: as §2, §3, §4

[14] = test system: Aeromonas salmonicida IFO 12659; assay: as above
Description: as §2, §3, §4

[15] = test system: Pseudomonas fluorescens IFO 12568; assay: as above
Description: as §2, §3, §4

[16] = test system: Test Organism 21 (Bacillus subtilis PCI 219); assay: influence of the addition of horse serum on the MIC
[17] = test system: Test Organism 2 (Escherichia Coli NIHJ JC-2 (IFO 12734)); assay: as above
[18] = test system: Test Organism 17 (Pseudomonas putida IFO 13696); assay: as above
[19] = test system: Yersinia enterocolitica 0-5; assay: antimicrobial activity, serial dilution method on agar plate
[20] = read-out: Minimum Inhibitory Concentration, inoculum 1 × 10^6 cells/ml
[21] = read-out: Minimum Inhibitory Concentration, inoculum 1 × 10^8 cells/ml
[22] = read-out: Minimum Inhibitory Concentration, horse serum 0%, inoculum 10^6
[23] = read-out: Minimum Inhibitory Concentration, horse serum 0%, inoculum 10^8
[24] = read-out: Minimum Inhibitory Concentration, horse serum 10%, inoculum 10^6
[25] = read-out: Minimum Inhibitory Concentration, horse serum 10%, inoculum 10^8
[26] = read-out: Minimum Inhibitory Concentration, horse serum 20%, inoculum 10^6
[27] = read-out: Minimum Inhibitory Concentration, horse serum 20%, inoculum 10^8
[28] = read-out: Minimum Inhibitory Concentration, horse serum 40%, inoculum 10^6
[29] = read-out: Minimum Inhibitory Concentration, horse serum 40%, inoculum 10^8

Question: For `CC1CCc2c(N3CCNCC3)ccc3c(=O)c(C(=O)O)cn1c23` (centres unmarked) [A], which MIC ([1]; Yersinia enterocolitica, 03, read-out: Minimum Inhibitory Concentration, inoculum 1 × 10^6 cells/ml) is on record?
Answer: 1.6 µg/mL (≈ 4.89 µM)

Question: And the MIC ([1]; Yersinia enterocolitica, 03, read-out: Minimum Inhibitory Concentration, inoculum 1 × 10^8 cells/ml)?
Answer: 3.1 µg/mL (≈ 9.47 µM)

Question: And the MIC ([2]; inoculum 1 × 10^6 cells/ml)?
Answer: 0.2 µg/mL (≈ 0.611 µM)

Question: What about the MIC ([2]; inoculum 1 × 10^8 cells/ml) of the same molecule?
Answer: 0.4 µg/mL (≈ 1.22 µM)

Question: What about the MIC (Escherichia Coli NIHJ; [20]) of the same molecule?
Answer: 0.4 µg/mL (≈ 1.22 µM)

Question: And the MIC (Escherichia Coli NIHJ; [21])?
Answer: 0.8 µg/mL (≈ 2.44 µM)

Question: And the MIC (Enterobacter cloacae; [20])?
Answer: 0.8 µg/mL (≈ 2.44 µM)

Question: What about the MIC (Enterobacter cloacae; [21]) of the same molecule?
Answer: 0.8 µg/mL (≈ 2.44 µM)

Question: What about the MIC [3] of the same molecule?
Answer: 12.5 µg/mL (≈ 38.2 µM)

Question: And the MIC (Hafnia alvei IFO 3731; IFO3731, read-out: Minimum Inhibitory Concentration, inoculum 1 × 10^6 cells/ml)?
Answer: 3.1 µg/mL (≈ 9.47 µM)

Question: What about the MIC (Hafnia alvei IFO 3731; IFO3731, read-out: Minimum Inhibitory Concentration, inoculum 1 × 10^8 cells/ml) of the same molecule?
Answer: 6.3 µg/mL (≈ 19.2 µM)

Question: What about the MIC [4, 20] of the same molecule?
Answer: 1.6 µg/mL (≈ 4.89 µM)

Question: What about the MIC [4, 21] of the same molecule?
Answer: 1.6 µg/mL (≈ 4.89 µM)

Question: And the MIC [5]?
Answer: 1.6 µg/mL (≈ 4.89 µM)

Question: And the MIC ([6]; IFO13696, read-out: Minimum Inhibitory Concentration, inoculum 1 × 10^6 cells/ml)?
Answer: 1.6 µg/mL (≈ 4.89 µM)

Question: And the MIC ([6]; IFO13696, read-out: Minimum Inhibitory Concentration, inoculum 1 × 10^8 cells/ml)?
Answer: 3.1 µg/mL (≈ 9.47 µM)

Question: And the MIC ([7]; IFO12692, read-out: Minimum Inhibitory Concentration, horse serum 0%, inoculum 10^6)?
Answer: 1.6 µg/mL (≈ 4.89 µM)

Question: What about the MIC ([7]; IFO12692, read-out: Minimum Inhibitory Concentration, horse serum 0%, inoculum 10^8) of the same molecule?
Answer: 3.1 µg/mL (≈ 9.47 µM)

Question: What about the MIC ([7]; IFO12692, read-out: Minimum Inhibitory Concentration, horse serum 10%, inoculum 10^6) of the same molecule?
Answer: 1.6 µg/mL (≈ 4.89 µM)

Question: And the MIC ([7]; IFO12692, read-out: Minimum Inhibitory Concentration, horse serum 10%, inoculum 10^8)?
Answer: 1.6 µg/mL (≈ 4.89 µM)

Question: And the MIC ([7]; IFO12692, read-out: Minimum Inhibitory Concentration, horse serum 20%, inoculum 10^6)?
Answer: 0.8 µg/mL (≈ 2.44 µM)

Question: What about the MIC ([7]; IFO12692, read-out: Minimum Inhibitory Concentration, horse serum 20%, inoculum 10^8) of the same molecule?
Answer: 0.8 µg/mL (≈ 2.44 µM)

Question: What about the MIC ([7]; IFO12692, read-out: Minimum Inhibitory Concentration, horse serum 40%, inoculum 10^6) of the same molecule?
Answer: 0.4 µg/mL (≈ 1.22 µM)

Question: And the MIC ([7]; IFO12692, read-out: Minimum Inhibitory Concentration, horse serum 40%, inoculum 10^8)?
Answer: 0.8 µg/mL (≈ 2.44 µM)

Question: And the MIC ([8]; IFO12658, inoculum 10^6, read-out: Minimum Inhibitory Concentration)?
Answer: 0.1 µg/mL (≈ 0.305 µM)

Question: And the MIC ([8]; IFO12658, inoculum 10^8, read-out: Minimum Inhibitory Concentration)?
Answer: 0.2 µg/mL (≈ 0.611 µM)

Question: What about the MIC ([9]; IFO12718, inoculum 10^6, read-out: Minimum Inhibitory Concentration) of the same molecule?
Answer: 0.2 µg/mL (≈ 0.611 µM)

Question: And the MIC ([9]; IFO12718, inoculum 10^8, read-out: Minimum Inhibitory Concentration)?
Answer: 0.4 µg/mL (≈ 1.22 µM)

Question: What about the MIC ([10]; IFO12981, inoculum 10^6, read-out: Minimum Inhibitory Concentration) of the same molecule?
Answer: 0.2 µg/mL (≈ 0.611 µM)

Question: And the MIC ([10]; IFO12981, inoculum 10^8, read-out: Minimum Inhibitory Concentration)?
Answer: 0.2 µg/mL (≈ 0.611 µM)

Question: What about the MIC ([11]; IFO13266, read-out: Minimum Inhibitory Concentration, inoculum 10^6) of the same molecule?
Answer: 0.1 µg/mL (≈ 0.305 µM)

Question: And the MIC ([11]; IFO13266, read-out: Minimum Inhibitory Concentration, inoculum 10^8)?
Answer: 0.2 µg/mL (≈ 0.611 µM)

Question: What about the MIC ([12]; IFO12710, read-out: Minimum Inhibitory Concentration, inoculum 10^6) of the same molecule?
Answer: 3.1 µg/mL (≈ 9.47 µM)

Question: What about the MIC ([12]; IFO12710, read-out: Minimum Inhibitory Concentration, inoculum 10^8) of the same molecule?
Answer: 3.1 µg/mL (≈ 9.47 µM)

Question: What about the MIC [13] of the same molecule?
Answer: 3.1 µg/mL (≈ 9.47 µM)

Question: What about the MIC ([14]; IFO12659, inoculum 10^6, read-out: Minimum Inhibitory Concentration) of the same molecule?
Answer: 0.2 µg/mL (≈ 0.611 µM)

Question: What about the MIC ([14]; IFO12659, inoculum 10^8, read-out: Minimum Inhibitory Concentration) of the same molecule?
Answer: 0.4 µg/mL (≈ 1.22 µM)

Question: What about the MIC ([15]; IFO12568, read-out: Minimum Inhibitory Concentration, inoculum 10^6) of the same molecule?
Answer: 12.5 µg/mL (≈ 38.2 µM)

Question: What about the MIC ([15]; IFO12568, read-out: Minimum Inhibitory Concentration, inoculum 10^8) of the same molecule?
Answer: 25 µg/mL (≈ 76.4 µM)

Question: What about the MIC [16, 22] of the same molecule?
Answer: 3.1 µg/mL (≈ 9.47 µM)

Question: What about the MIC [16, 23] of the same molecule?
Answer: 6.3 µg/mL (≈ 19.2 µM)

Question: What about the MIC [16, 24] of the same molecule?
Answer: 3.1 µg/mL (≈ 9.47 µM)

Question: What about the MIC [16, 25] of the same molecule?
Answer: 3.1 µg/mL (≈ 9.47 µM)

Question: What about the MIC [16, 26] of the same molecule?
Answer: 0.8 µg/mL (≈ 2.44 µM)

Question: And the MIC [16, 27]?
Answer: 1.6 µg/mL (≈ 4.89 µM)

Question: And the MIC [16, 28]?
Answer: 0.8 µg/mL (≈ 2.44 µM)

Question: And the MIC [16, 29]?
Answer: 0.8 µg/mL (≈ 2.44 µM)

Question: What about the MIC [17, 22] of the same molecule?
Answer: 1.6 µg/mL (≈ 4.89 µM)

Question: What about the MIC [17, 23] of the same molecule?
Answer: 1.6 µg/mL (≈ 4.89 µM)

Question: And the MIC [17, 24]?
Answer: 0.8 µg/mL (≈ 2.44 µM)

Question: And the MIC [17, 25]?
Answer: 0.8 µg/mL (≈ 2.44 µM)

Question: What about the MIC [17, 26] of the same molecule?
Answer: 0.8 µg/mL (≈ 2.44 µM)

Question: What about the MIC [17, 27] of the same molecule?
Answer: 0.8 µg/mL (≈ 2.44 µM)

Question: And the MIC [17, 28]?
Answer: 0.4 µg/mL (≈ 1.22 µM)

Question: What about the MIC [17, 29] of the same molecule?
Answer: 0.4 µg/mL (≈ 1.22 µM)

Question: What about the MIC ([18]; IFO13696, read-out: Minimum Inhibitory Concentration, horse serum 0%, inoculum 10^6) of the same molecule?
Answer: 0.2 µg/mL (≈ 0.611 µM)

Question: And the MIC ([18]; IFO13696, read-out: Minimum Inhibitory Concentration, horse serum 0%, inoculum 10^8)?
Answer: 0.4 µg/mL (≈ 1.22 µM)

Question: What about the MIC ([18]; IFO13696, read-out: Minimum Inhibitory Concentration, horse serum 10%, inoculum 10^6) of the same molecule?
Answer: 0.2 µg/mL (≈ 0.611 µM)

Question: And the MIC ([18]; IFO13696, read-out: Minimum Inhibitory Concentration, horse serum 10%, inoculum 10^8)?
Answer: 0.2 µg/mL (≈ 0.611 µM)

Question: And the MIC ([18]; IFO13696, read-out: Minimum Inhibitory Concentration, horse serum 20%, inoculum 10^6)?
Answer: 0.2 µg/mL (≈ 0.611 µM)

Question: And the MIC ([18]; IFO13696, read-out: Minimum Inhibitory Concentration, horse serum 20%, inoculum 10^8)?
Answer: 0.2 µg/mL (≈ 0.611 µM)

Question: And the MIC ([18]; IFO13696, read-out: Minimum Inhibitory Concentration, horse serum 40%, inoculum 10^6)?
Answer: 0.2 µg/mL (≈ 0.611 µM)

Question: And the MIC ([18]; IFO13696, read-out: Minimum Inhibitory Concentration, horse serum 40%, inoculum 10^8)?
Answer: 0.2 µg/mL (≈ 0.611 µM)

Question: What about the MIC ([19]; Yersinia enterocolitica, 05, read-out: Minimum Inhibitory Concentration, inoculum 1 × 10^6 cells/ml) of the same molecule?
Answer: 0.8 µg/mL (≈ 2.44 µM)

Question: And the MIC ([19]; Yersinia enterocolitica, 05, read-out: Minimum Inhibitory Concentration, inoculum 1 × 10^8 cells/ml)?
Answer: 0.8 µg/mL (≈ 2.44 µM)
